Measured values reported in patent US10653648B2, “Histone acetyltransferase activators and compositions and uses thereof” (THE TRUSTEES OF COLUMBIA UNIVERSITY IN THE CITY OF NEW YORK, priority 2016, dated 2020).

Tests used:
[1] = cited from earlier work
[2] = test system: Pfeiffer (EP300 wt/CREBBP mut); assay: Synergy with romidepsin, Excess Over Bliss; format: cell-based; settings: in combination with romidepsin, 72 hrs
Protocol: (§1) FIGS. 22A-E show the synergy effect of JF1, a HAT activator compound, with romidepsin (a pan-class HDAC inhibitor) in B-cell lymphoma cell lines. Synergy between JF1 and romidepsin was evaluated in Pfeiffer (EP300 wt/CREBBP mut) and SUDHL-10 cells (EP300 mut/CREBBP Δ). Excess Over Bliss was calculated. Drug synergy will be confirmed by Excess over bliss (EOB). Bliss is calculated by the following formula: X=(A+B)−(A*B); where X designates the combined response for the two single compounds with effects (inhibition) A and B. The difference between Bliss and observed growth inhibition (Y) induced by combinations of drugs A and B at the same dose is the termed EOB (EOB=Y−X) 18,19. An EOB>10 connotes synergy. […] Synergy effect of JF1 and romidepsin was also assessed in a panel of B-cell lymphoma cell lines (N=5) (FIGS. 22C-22E). Cells were treated by different concentrations of JF1 and romidepsin for 48 hrs (FIG. 22C) and 72 hrs (FIG. 22D) and an Excess Over Bliss was calculated for both time points for all five cell lines. SUDHL-6 and Pfeiffer (Bold) were treated 2, 2.5, […] JF1, whereas the rest of cell lines were treated with 2, 3, 4 μM JF1. Synergy is defined by an Excess Over Bliss of 10. […]
(§2) Cells were exposed to increasing concentrations of YF2 and romidepsin in various combinations for 72 hrs and Excess Over Bliss (EOB) was calculated.

[3] = test system: seven B-cell lymphoma cell lines; assay: Synergy with romidepsin, Excess Over Bliss, cell line panel; format: cell-based; settings: in combination with romidepsin, 72 hrs
Protocol: as §1, §2

[4] = test system: SUDHL-6 (EP300 mut/CREBBP mut); assay: Histone acetylation quantified by mass spectrometry; format: cell-based; settings: combination with romidepsin (1.5 nM); YF2 6 uM, JF1 3 uM; 48 hours
Protocol: (§3) FIGS. 25A-B compare the synergy effects that HAT-activators JF1 and YF2 in combination with romidepsin have on histone acetylation in B-cell lymphoma cell lines, as quantified by mass spectrometry. In these experiments cells were seeded at 5,000 cells/mL and exposed to YF2 (6 uM), JF1 (3 uM) and romidepsin (1.5 nM) alone and in combinations for 48 hours. Following treatment, SUDHL-6 (EP300 mut/CREBBP mut, FIG. 25A) and SUDHL-10 cells (EP300 mut/CREBBP mut, FIG. 25B) were harvested for histone extraction.
For each, a synergy effect, calculated as a fold change of treatment vs. control, was observed showing an increase in histone acetylation for JF1/romidepsin and YF2/romidepsin compared to individual treatment of the cells with either JF1, YF2, or romidepsin alone (FIG. 25A).

[5] = test system: SUDHL-10 cells (EP300 mut/CREBBP mut); assay: as above; format: cell-based; settings: combination with romidepsin (1.5 nM), YF2 6 uM, 48 hours
Protocol: as §3
The synergy trend for the SUDCL-6 cell line is evident for SUDCL-10 as well (FIG. 25B). In the same manner as described above, SUDHL-10 cells were treated separately with romidepsin, JF1, YF2, JF1/romidepsin, and YF2/romidepsin and the fold change in histone acetylation was measured.

[6] = test system: SUDHL-10; assay: Histone H3 acetylation by Western Blot; format: cell-based; settings: in combination with romidepsin, 48 hours
Protocol: (§4) FIG. 26 provides a Western Blot showing the effect of JF1 and YF2 alone and in combination with romidepsin on histone acetylation in HAT-mutated cells lines. Cells were exposed to YF2 and romidepsin alone and in combinations for 48 hours in SUDHL-6 and SUDHL-10 (EP300 mut/CREBBP mut). The synergistic effect of YF2 on histone acetylation was evaluated by Western Blot with histone H3 serving as loading control.

[7] = test system: SUDHL-6; assay: Histone H3 acetylation by Western Blot; format: cell-based; settings: in combination with romidepsin, 48 hours
Protocol: as §4

Row | SMILES | solubility [1] | strong synergy response (EOB of at least 20) [2] | cell lines with strong synergy (EOB of at least 20) [3] | cell lines with strong synergy (EOB of at least 20), percentage [3] [%] | H3:K9AC increase in acetylation vs. YF2 or JF1 alone [4] [fold] | H3:K9AC increase in acetylation vs. control [4] [fold] | H3:K9AC increase in acetylation vs. romidepsin [4] [fold] | global acetylation of histones compared with single agent effects [4] | global acetylation of histones compared with single agent effects ([5]; JF1 3 uM) | H3:K9AC maximum synergy effect on acetylation [5] | global acetylation of Histone H3 compared with single agent effects [6] | global acetylation of Histone H3 compared with single agent effects [7]
1 | CCOc1ccccc1C(=O)Nc1ccc(Cl)c(C(F)(F)F)c1 [CTB] | insoluble |  |  |  |  |  |  |  |  |  |  | 
2 | CCCCCCCCCCCCCCCc1cccc(OCC)c1C(=O)Nc1ccc(Cl)c(C(F)(F)F)c1 [CTPB] | insoluble |  |  |  |  |  |  |  |  |  |  | 
3 | CCOc1cccc(OCCN(C)C)c1C(=O)Nc1ccc(Cl)c(C(F)(F)F)c1 [YF2] |  | fail to show a strong response | 6 out of 7 | 86 | 8 | 10 | ~2 | induced the global acetylation of histones | induced the global acetylation of histones | about 1.6 fold | induced the global acetylation of Histone H3 | induced the global acetylation of Histone H3
